Source: PMC5295395, “Inhibition of PlexA1-mediated brain tumor growth and tumor-associated angiogenesis using a transmembrane domain targeting peptide” (Oncotarget, 2016)

Key:
Type in all cases: cell-based, human
[1] = system: NRP1/PlexA1 complexes; assay: in situ proximity ligation assay (Duo-link), NRP1/PlexA1 complexes in U373MG cells; conditions: U373MG cells, MTP-PlexA1 10^−7 M, vs vehicle
Experimental: “Zip sequence” is the positive control of dimerization and “Empty” is the negative control of this bacterial system. (C, D) SPR assay (Biacore) to quantify MTP-PlexA1 interactions with PLexA1, NRP1 and VEGFR2 TMDs. (E) Proximity ligation assay showing that MTP-PlexA1 (10^−7 M) decreases the number of PLexA1-NRP1 interactions (green dots) in U373MG cells (scale bar = 20 μm).
Additional specificity controls were performed using a mutated version of MTP-PlexA1 (in which 3 glycines of the GxxxGxxxG motif were replaced by 3 valines or MTP-Neu, an anti-breast cancer peptide known to not interact with PlexA1) as described in Supplementary Figure S2. […] Similar results were obtained when cells were exposed to VEGF (39.4% NRP1 and 35.4% PlexA4, Figure 4B).
Supplementary Figure S2: Specificity controls were performed using a mutated version of MTP-PlexA1 […]
LVIVAVLIAYKRK). Such mutations have been previously shown to be sufficient to lose activity of NRP1 antagonist membrane domain targeting peptide (Roth et al., 2008 Mol Biol Cell). We also used MTP-Neu, a transmembrane domain targeting peptide known to […]
M, a concentration previously shown to produce maximal antagonist activity of the peptide. Additionally, we also repeated the in vitro angiogenic assay on matrigel using HUVEC cells. […]
to MTP-PlexA1. These experiments confirmed the specificity of MTP-PlexA1.
(§1) (1 picture or pasted object on this page, not shown here)

[2] = system: HUVEC cells; assay: pseudo-tube formation assay, HUVEC on matrigel; conditions: 10^−7 M, 5 h, vs vehicle; p = 0.0087
Excerpt: We observed PlexA1 positive blood vessels in the tissue array of GBM samples (Figure 5A). […] To address this possibility we first used a transgenic zebra-fish model tg(kdrl:eGFP) highlighting the endothelial cells. This allowed us to assess the angiogenic activities in vivo by analyzing formation of intersegmental vessels (ISVs) after morpholino-based knockdown of the target.
Figure 5 MTP-PlexA1 inhibits developmental and tumor-specific PlexA1 pro-angiogenic role (A) Microphotographs illustrating the expression of PlexA1 in vascular-like structures in human glioma tissues. (Scale bar: 40 μm). (B) Morpholino-based PlexA1 knockdown in Zebrafish tg(kdrl:eGFP) line. Representative images of control, Plexin-A1 mismatch and Pexin-A1 knockdown embryos (plxna1MO) are shown 28 hours post fertilization (28hpf). […] (E) Live-monitoring of VEGF-induced HUVEC cell migration assay using the XCelligence system (transwell assay). (F) Microphotographs illustrating the expression of PlexA1 in blood vessels of the chick chorioallontoic membrane (upper left picture). Microphotographs (middle and lower left pictures) and camera lucida drawing (middle and lower right pictures) showing representative fields of observation after 24 h incubation with VEGF (100 ng/ml, +vehicle) or VEGF + MTP-PlexA1 (10^−7 M). The number of VEGF-induced new blood vessels is shown in the graph. […]

[3] = system: NCH644 cells; assay: sphere forming assay, NCH644 glioma stem cells; conditions: NCH644, 10^−9 M
Experimental: Mounting evidence supports a crucial role of cancer stem cells in the initiation or relapse of tumors. This is particularly the case for gliomas. Thus, we decided to evaluate to what extent MTP-PlexA1 would affect glioma stem cell (GSC) growth. To this end, we used the NCH644 human cell line derived from a patient biopsy. […] We next performed a sphere forming assay in which cells were plated into 96-well plates at a low density (30 cells per well) to monitor production of clones from individual cells growing as non-adherent gliomaspheres. A minimum of 30 cells per well was required to allow sufficient sphere production (composed of at least 8 cells) in a time frame compatible with drug testing. Visual control of sphere formation on a daily basis confirmed that cellular edifices were arising from single cells and not due to cell clumping. […] To address whether this inhibitory effect is sufficient to impede tumor development in vivo we performed a xenograft experiment. […]
Cells were stained with an orange fluorescent dye (CMRA orange, Molecular Probe) to facilitate monitoring of individual cell and sphere counting. […] The sphere forming rate was calculated by dividing the number of sphere at day 4 per the real number of cells at day one in a given well.

[4] = system: U373MG cells; assay: 3D migration assay, U373MG spheroids in plasma clot; conditions: 3D plasma clot, 24 h, VEGF 100 ng/ml, MTP-PlexA1 10–7 M
Experimental: Supplementary Figure S6: The anti-tumor effect of MTP-PlxA1 was verified in U373MG human GBM line. We found […]
Because PlexA1 is involved in cell migration we also performed a 3D migration assay. U373MG cells were grown as cell aggregates (micro tumor-like spheroids) for 24 h in plasma clot with or without VEGF. […]
migration that formed cell chains invading the 3D substrate as previously described (12). Strikingly, VEGF-induced cell migration was abolished when MTP-PlexA1 at 10–7 M was added to the cultures. […]
of PlexA1, this part of the study exemplified the therapeutic potential of MTP-PlexA1 because this peptide was able to block two major mechanisms of tumor progression.
(Stable Disease) and 62.5% PR (Partial Response).
as §1

Sequence: TLPAIVGIGGGGGLLLLVIVAVLIAYKRK [MTP-PlexA1, synthetic transmembrane peptide mimicking the TMD of PlexA1]
- reduction of NRP1/PlexA1 complexes [1]: 29.4%
- change of tube-like structures (HUVEC on matrigel) [2]: −68%
- decrease of sphere forming ability ([3]; 4 days, 30 cells per well, p = 0.0015, Student T test): 33.3%
- sphere formation relative to vehicle ([3]; vehicle = 100% +/− 9.7%): 66.7% +/− 5.2
- VEGF-induced U373MG tumor cell migration [4]: abolished
